Laboratory results from patent US4539429A, “Substituted aminophenylalkyl ketones, their preparation and use” (Sterling Drug Inc., priority 1983, dated 1985).
Read-outs that look alike come from different tables or passages of the source.

Assays:
cyclooxygenase = target: T1, cyclooxygenase (Rattus norvegicus, UniProt Q63921); assay: Inhibition of cyclooxygenase from rat basophilic leukemia (RBL-1) cells (formation of PGD2, C1); format: biochemical; conditions: cyclooxygenase product PGD2 (C1); for inhibition at 1 µM: read-out: % Inhibition of cyclooxygenase (Cl) formation
T1 construct: Single cell suspensions of RBL-1 cells are homogenized to obtain the microsomal fraction containing lipoxygenase and cyclooxygenase; endogenous in cells; host or cells: RBL-1 (rat basophilic leukemia) cells
T1 sequence (Q63921 27-602): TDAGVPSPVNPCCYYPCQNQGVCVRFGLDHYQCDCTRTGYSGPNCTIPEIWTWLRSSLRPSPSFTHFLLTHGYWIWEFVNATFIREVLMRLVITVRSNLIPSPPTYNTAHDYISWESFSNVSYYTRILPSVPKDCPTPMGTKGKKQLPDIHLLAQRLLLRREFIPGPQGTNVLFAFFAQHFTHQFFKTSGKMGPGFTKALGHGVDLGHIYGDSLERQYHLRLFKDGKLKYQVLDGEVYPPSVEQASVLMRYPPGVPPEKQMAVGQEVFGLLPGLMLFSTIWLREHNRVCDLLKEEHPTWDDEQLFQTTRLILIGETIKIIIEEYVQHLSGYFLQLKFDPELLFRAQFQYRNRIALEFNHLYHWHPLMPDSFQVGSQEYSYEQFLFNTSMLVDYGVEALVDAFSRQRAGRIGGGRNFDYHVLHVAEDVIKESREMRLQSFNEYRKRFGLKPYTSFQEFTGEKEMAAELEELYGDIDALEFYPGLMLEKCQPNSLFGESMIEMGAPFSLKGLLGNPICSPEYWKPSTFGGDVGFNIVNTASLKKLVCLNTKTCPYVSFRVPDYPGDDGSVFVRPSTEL
Protocol: (§1) The primary screening test used is a determination of the inhibition of lipoxygenase and cyclooxygenase derived from rat basophilic leukemia (RBL-1) cells. The test was carried out according to the following procedure:
(§2) Single cell suspensions of RBL-1 cells are homogenized to obtain the microsomal fraction containing lipoxygenase and cyclooxygenase. Test compounds are added to the enzyme-containing homogenate for a 5 min preincubation period at 37° C. prior to the additon of ^14 C-arachidonic acid substrate. Following incubation at 37° C. for 15 min, the reaction is stopped by the addition of 2M formic acid and the enzyme-substrate products are extracted into chloroform. An aliquot of the extract is evaporated to dryness, reconstituted in ether to 1/10 original volume, spotted on thin layer chromatography plates and chromatographed. The peak areas of radioactivity representing the products are located by scanning the plates. The quantity of products formed is estimated by measuring the height of the radioactivity peaks observed on the chromatographic scans. Alternatively, the areas of radioactivity are scraped from the plate and the ^14 C quantitated by scintillation counting.

lipoxygenase = target: T2, lipoxygenase (Rattus norvegicus, UniProt P12527); assay: Inhibition of lipoxygenase from rat basophilic leukemia (RBL-1) cells (formation of L1 5,12-di-HETE and L2 5-HETE); format: biochemical
T2 construct: Single cell suspensions of RBL-1 cells are homogenized to obtain the microsomal fraction containing lipoxygenase and cyclooxygenase; endogenous in cells; host or cells: RBL-1 (rat basophilic leukemia) cells
T2 sequence (P12527 1-673): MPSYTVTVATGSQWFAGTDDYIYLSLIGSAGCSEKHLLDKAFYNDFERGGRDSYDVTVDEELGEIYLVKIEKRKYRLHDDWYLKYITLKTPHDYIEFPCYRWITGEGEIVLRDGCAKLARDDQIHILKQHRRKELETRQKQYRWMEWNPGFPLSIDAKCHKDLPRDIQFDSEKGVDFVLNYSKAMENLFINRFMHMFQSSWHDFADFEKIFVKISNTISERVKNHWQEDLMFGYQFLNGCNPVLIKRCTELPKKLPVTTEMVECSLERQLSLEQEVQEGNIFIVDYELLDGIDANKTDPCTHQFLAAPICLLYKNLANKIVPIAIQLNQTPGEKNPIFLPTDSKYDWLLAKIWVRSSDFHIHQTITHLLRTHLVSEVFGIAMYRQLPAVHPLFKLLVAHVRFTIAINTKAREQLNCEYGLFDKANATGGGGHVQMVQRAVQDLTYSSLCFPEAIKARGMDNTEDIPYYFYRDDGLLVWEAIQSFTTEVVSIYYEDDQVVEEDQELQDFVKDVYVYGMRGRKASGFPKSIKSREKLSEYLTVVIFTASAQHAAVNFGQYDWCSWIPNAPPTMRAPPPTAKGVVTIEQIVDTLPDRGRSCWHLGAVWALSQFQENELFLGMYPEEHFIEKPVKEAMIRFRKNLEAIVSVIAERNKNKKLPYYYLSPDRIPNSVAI
Protocol: as §1, §2

[1] = test system: SRS-A component of immunologically induced bronchoconstriction; assay: Effect on the SRS-A component of immunologically induced bronchoconstriction in guinea pigs; format: in vivo, guinea pig
Protocol: The test was carried out according to the following procedure:
Two weeks after immunization with egg albumin, guinea pigs are prepared for bronchoconstriction determination. One hour prior to antigen challenge, each animal is dosed orally with indomethacin and chlorpheniramine. Animals are anesthetized with sodium pentobarbital, the trachea cannulated and the animal artifically respired. Arachidonic acid is administered intravenously prior to antigen challenge. The resulting bronchoconstriction is recorded by the standard lung overflow procedure and the peak increase in intratracheal pressure (mm Hg) over a 10 minute observation period is recorded. Compounds are evaluated for their ability to prevent the increased intratracheal pressure in an experimental group of animals as compared to the medicated (indomethacin+chlorpheniramine+arachidonic acid) control group. The results are expressed in terms of percent inhibition or as ED50 values (effective dose in 50% of the animals).

| Structure (SMILES) | inhibition at 1 µM (cyclooxygenase) [%] | IC50 (cyclooxygenase) [nM] | IC50 (lipoxygenase) [nM] | inhibition at 1 µM (lipoxygenase; read-out: % Inhibition of lipoxygenase (L1) formation) [%] | inhibition at 1 µM (lipoxygenase; read-out: % Inhibition of lipoxygenase (L2) formation) [%] | ED50 ([1]; Cavia porcellus, iv, indomethacin + chlorpheniramine pretreated, arachidonic acid i.v. before antigen challenge, read-out: In vivo Guinea Pig ED50) [mg/kg] | In vivo Guinea Pig % inhib. ([1]; at 1 mg/kg orally, increased intratracheal pressure vs medicated control group) [%] | inhibition at 1 µM (lipoxygenase; 1 μM, L1 = 5,12-di-HETE, read-out: % Inhibition of lipoxygenase (L1) formation) [%] | inhibition at 1 µM (lipoxygenase; 1 μM, L2 = 5-HETE, read-out: % Inhibition of lipoxygenase (L2) formation) [%] |
| --- | --- | --- | --- | --- | --- | --- | --- | --- | --- |
| COc1ccc(Nc2ccc(O)cc2)c(C(C)=O)c1 [Example 1c, 1-[2-(4-Hydroxyphenylamino)-5-methoxyphenyl]ethanone] | 36 | > 1000 | 70 | 88 | 88 | 2.7 | 52 |  |  |
| CC(=O)c1ccccc1Nc1ccc(O)cc1 [Example 2c, 1-[2-(4-Hydroxyphenylamino)phenyl]ethanone] | 9 |  |  |  |  |  |  | 61 | 72 |
